The subject of this experiment is H1N1 (influenza A/New Caledonia/20/99). The experiment in a line: microbe, parasite or virus in culture. The class given is cell-based. The settings on record: H1N1, A549, 48 h.

With `COC1=CC(c2cc3c([nH]2)CCCC3)=N/C1=C\c1[nH]c(C)cc1C` [Compound 3, (Z)-2-(2-((3,5-dimethyl-1H-pyrrol-2-yl)methylene)-3-methoxy-2H-pyrrol-5-yl)-4,5,6,7-tetrahydro-1H-indole], the 50% inhibitory concentration (IC50) (in general, the concentration that inhibits the measured activity by half) is 56 nM.

For `COC1=CC(c2cc3c([nH]2)CCCC3C)=N/C1=C\c1[nH]c(C)cc1C` (centres unmarked) [Compound 7, (Z)-2-(2-((3,5-dimethyl-1H-pyrrol-2-yl)methylene)-3-methoxy-2H-pyrrol-5-yl)-4-methyl-4,5,6,7-tetrahydro-1H-indole], inhibition was half-maximal at 75 nM (IC50).

In turn, `COC1=CC(c2cc3c([nH]2)CCC(C)C3)=N/C1=C\c1[nH]c(C)cc1C` (centres unmarked) [Compound 19, (Z)-2-(2-((3,5-dimethyl-1H-pyrrol-2-yl)methylene)-3-methoxy-2H-pyrrol-5-yl)-5-methyl-4,5,6,7-tetrahydro-1H-indole] came in with an IC50 of 91 nM.

Regarding `COC1=CC(c2cc3c([nH]2)CCCC32CC2)=N/C1=C\c1[nH]c(C)cc1C` [Compound 23, (Z)-2′-(2-((3,5-dimethyl-1H-pyrrol-2-yl)methylene)-3-methoxy-2H-pyrrol-5-yl)-1′,5′,6′,7′-tetrahydrospiro[cyclopropane-1,4′-indole]], the IC50 came to 77 nM.

Take `COC1=CC(c2cc3ccccc3[nH]2)=N/C1=C\c1[nH]c(C)cc1C` [Obatoclax, reference compound]: the IC50 came to 91 nM.
